What was measured:
[1] = Case reports: patients with depression given ketamine with or without an anxiolytic; format: in vivo, human
[2] = Case report: patient with depression and suicidal ideation given ketamine with or without intranasal oxytocin; format: in vivo, human
[3] = cited from earlier work
[4] = Case report: patient with muscle spasm associated with cerebral palsy given intramuscular ketamine; format: in vivo, human; conditions: intramuscular ketamine 0.2-1.2 mg/kg
[5] = ketamine infusions, benzodiazepine users, Albott et al., 2017

Compound: Cc1nnc2n1-c1ccc(Cl)cc1C(c1ccccc1)=NC2 [alprazolam]
- improvement in depression ([1]; same patient, 0.5 mg alprazolam before the same dose of ketamine): significant improvement in depression

Compound: CNC1(c2ccccc2Cl)CCCCC1=O (centres unmarked) [ketamine]
- therapeutic benefit ([1]; patient with depression, ketamine alone): did not benefit therapeutically
- antidepressant effect ([1]; same patient, ketamine without lorazepam, compared to times with lorazepam): reduced antidepressant effect
- improvement in depression or suicidal ideation ([2]; ketamine alone, several times, intramuscular 0.25-1.0 mg/kg): did not experience improvement
- antidepressant effect of ketamine ([3]; concomitant use of benzodiazepines, Andrashko et al., 2020): dampened the antidepressant effect
- time to antidepressant response [3, 5]: significantly longer
- time to depression relapse [3, 5]: significantly shorter
- antidepressant response to ketamine infusions ([3]; one patient, after their benzodiazepine was withdrawn, Ford et al. (2015)): more robust
- muscle spasm after the treatment [4]: reduction in their muscle spasm

Compound: O=C1Nc2ccc(Cl)cc2C(c2ccccc2Cl)=NC1O (centres unmarked) [lorazepam]
- antidepressant effect ([1]; patient with depression, 1 mg lorazepam prior to ketamine, several treatments): experienced an antidepressant effect

Compound: CC[C@H](C)[C@@H]1NC(=O)[C@H](Cc2ccc(O)cc2)NC(=O)[C@@H](N)CSSC[C@@H](C(=O)N2CCC[C@H]2C(=O)N[C@@H](CC(C)C)C(=O)NCC(N)=O)NC(=O)[C@H](CC(N)=O)NC(=O)[C@H](CCC(N)=O)NC1=O [oxytocin]
- severity of depression and suicidal ideation ([2]; same patient, oxytocin 40 IU intranasally 30 minutes before ketamine in same dose range): reduced severity of depression and suicidal ideation

Reference: patent publication US20250195537A1, “PSYCHEDELIC DRUG TREATMENT OF NEUROPSYCHIATRIC DISORDERS AND CEREBRAL PALSY” (priority 2021, published 2025)
